Values quoted from earlier work, collected in patent publication US20220054538A1, “ANTI-HELICOBACTER AGENT AND METHOD FOR THE USE THEREOF” (priority 2018, published 2022).

Tested on: Helicobacter pylori culture
Conditions: in vitro

calcium pectate
effect on Helicobacter pylori culture: significant effect
